Here are results for one molecule from ChEMBL document CHEMBL1133888, “Development and in vitro efficacy of novel MMP2 and MMP9 specific doxorubicin albumin conjugates” (Bioorg Med Chem Lett, 2001).

The test can be described thus: Inhibitory effect against murine renal cell carcinoma cell line (RENCA cells) using a BrdU-incorporation assay. The settings on record: Mus musculus. In kind it is functional, cell-based.

In general, IC50 refers to the concentration that inhibits the measured activity by half. Read a low IC50 as greater potency. Turning to `COc1cccc2c1C(=O)c1c(O)c3c(c(O)c1C2=O)C[C@@](O)(C(=O)CO)C[C@@H]3O[C@H]1C[C@H](N)[C@H](O)[C@H](C)O1` [DOXORUBICIN], the IC50 is < 10 nM.
